This is an account of results in patent US5627263A, “Integrin-binding peptides” (La Jolla Cancer Research Foundation, priority 1995, dated 1997).

Where a SMILES comes first, the peptide text is derived from it. Bridges are numbered along the chain shown (N, C = ends).

Assay [1] addresses α5 β1 integrin (Homo sapiens, UniProt P05556+P08648). In words: 125I-fibronectin binding assay, competing peptides. The conditions noted are these: microtiter wells coated with α5 β1, 1 hr; FIG. 1; read-out: IC50, inhibition of 125I-fibronectin binding to α5 β1. The procedure: The α5 β1 integrin was bound to α5 specific antibody-coated wells by incubating 300 μl of a placental extract per well in TBS buffer containing 0.1M octylglucoside, 1 mM CaCl2, 1 mM MnCl2 and proteinase inhibitors overnight at 4° C., as described by Pytela et al. (1987), supra. Alternatively, the α5β1 integrin was directly coated on plastic as described above. The wells were extensively washed with TBS containing 0.1% NP-40. ^125 I-labeled fibronectin (100,000 cpm per well) was incubated in the presence of competing peptides for 1 hr at 25° C. in 100 μl volume of TBS containing 0.1% NP-40 and 1 mM MnCl2, as described by Koivunen et al. (1993), supra. After repeated washing, the bound radioactivity was quantitated with a gamma counter.
Initially, CRRETAWAC [SEQ ID NO:6] was examined for its ability to inhibit binding of fibronectin, which is the natural ligand for α5 β1. Briefly, ^125 I-fibronectin was incubated for 1 hr in the presence of competing peptides in microtiter wells coated with α5 β1. Following incubation, the wells were washed and bound radioactivity was determined with a gamma counter.

Assay [2] deals with T1, α5 β1 integrin (UniProt G3HZ55+P08648).
T1 construct: expressed in transfected cells; host or cells: CHO B2/α27
Nature of the assay: Attachment of B2/α27 cells to immobilized GACRRETAWACGA peptide and its inhibition. The conditions noted are these: EDTA 10 mM; FIG. 8. Type of assay: cell-based, human. An excerpt: Cell lines expressing fibronectin-binding integrins were used to determine peptide activities against these integrins in the cell attachment assay described by Ruoslahti et al., Meth. Enzymol. 144:803-831 (1982), which is incorporated herein by reference. Human plasma fibronectin was iodinated as described by Morla and Ruoslahti, J. Cell Biol. 118:421-429 (1992), which is incorporated herein by reference. Vitronectin was obtained from Telios Pharmaceuticals (San Diego, Calif.). […] Peptide was coated on plastic by incubating at 37° C. for 2 hr in phosphate buffered saline containing 0.25% glutaraldehyde to crosslink the peptide. Free binding sites on the plastic were blocked using BSA. Approximately 1×10^5 cells per well were allowed to attach for 1 hr in the presence or absence of competing peptides. Bound cells were quantitated by staining with 0.1% amido black.
In addition to the inhibition of cell attachment to natural ligands, attachment and inhibition assays were performed using the […] [SEQ ID NO:3] peptide as substrate. The microtiter well were coated with […] [SEQ ID NO:3] using glutaraldehyde as described above. […] Bound cells were quantitated by staining with 0.1% amido black.

In the case of `CC(C)C[C@H](NC(=O)[C@@H]1CSSC[C@H](NC(=O)[C@H](C)NC(=O)CN)C(=O)N[C@@H](CCCNC(=N)N)C(=O)NCC(=O)N[C@@H](CC(=O)O)C(=O)N1)C(=O)NCC(=O)N[C@@H](C)C(=O)O` [CRGDC, GA*CRGDC*LGA] (H-GACRGDCLGA-OH; disulfide 3-7), the IC50 (in general, the midpoint of a concentration-inhibition curve) at α5 β1 integrin [1] was ~8 nM.

On to `C[C@H](NC(=O)CNC(=O)[C@@H]1CSSC[C@H](NC(=O)[C@H](C)NC(=O)CN)C(=O)N[C@@H](CCCNC(=N)N)C(=O)N[C@@H](CCCNC(=N)N)C(=O)N[C@@H](CCC(=O)O)C(=O)N[C@@H]([C@@H](C)O)C(=O)N[C@@H](C)C(=O)N[C@@H](Cc2c[nH]c3ccccc23)C(=O)N[C@@H](C)C(=O)N1)C(=O)O` [CRRETAWAC, GA*CRRETAWAC*GA] (H-GACRRETAWACGA-OH; disulfide 3-11), for which, on α5 β1 integrin [1], the IC50 is ~8 nM.

For `O=C(O)CN(CCN(CC(=O)O)CC(=O)O)CC(=O)O` [EDTA], the “Inhibition of cell attachment to immobilized RRETAWA peptide by EDTA” value at α5 β1 integrin [2] is listed as “inhibited”.
